Measured values as given in ChEMBL document CHEMBL1134057, “Synthesis of polyamine derivatives having non-hypotensive Ca2 +-permeable AMPA receptor antagonist activity” (Bioorg Med Chem Lett, 2001).

Legend:
[1] = molecular target: Glutamate receptor ionotropic, AMPA (Rattus norvegicus, UniProt P19490+P19491+P19492+P19493)
[2] = species on record: Rattus norvegicus; settings: dose 3 mg/kg; route intravenous
Description: Change in systolic blood pressure(SBP) after intravenous administration of 3 mg/kg in rats compared with SBP before dosing

[3] = molecular target: Glutamate receptor ionotropic, AMPA (Rattus norvegicus) (UniProt P19491+P19492+P19493+P19490); experiment: Antagonist activity for [Ca2+] permeable Ionotropic glutamate receptor AMPA expressed in Xenopus oocytes by injection of rat brain mRNA at 1 uM; assay type: functional, cell-based; settings: Oocyte

inhibition [3] [%] | Compound | IC50 [1] [nM] | Delta SBP [2] [mmHg]
– | NC(=O)C[C@@H](NC(=O)Cc1cccc2ccccc12)C(=O)N1CCC(CNCCCCNCC2CCNCC2)CC1 | 270 | -75
– | O=C(Cc1cccc2ccccc12)NCCCCCC(=O)N1CCC(CNCCCCNCC2CCNCC2)CC1 | 420 | -40
28 | c1ccc2c(CCN3CCC(CNCCCCNCC4CCNCC4)CC3)cccc2c1 | – | –
18 | O=C(Cc1cccc2ccccc12)N1CCC(CNCCCCNCCN2CCOCC2)CC1 | – | 0
41 | CN1CCCC1CNCCCCNCC1CCN(C(=O)Cc2cccc3ccccc23)CC1 (stereo not given) | – | 13
– | O=C(Cc1cccc2ccccc12)N1CCC(CNCCCCNCC2CCCCN2)CC1 (stereo not given) | 1100 | 0
– | O=C(Cc1cccc2ccccc12)N1CCC(CNCCCCNCC2CCN(c3ccncc3)CC2)CC1 | 170 | -43
– | O=C(Cc1cccc2ccccc12)N1CCC(CNCCCCNCC2CCCN2)CC1 (stereo not given) | 730 | 0
– | O=C(Cc1cccc2ccccc12)NCC(=O)N1CCC(CNCCCCNCC2CCNCC2)CC1 | 490 | -50
27 | CN1CCCCC1CNCCCCNCC1CCN(C(=O)Cc2cccc3ccccc23)CC1 (stereo not given) | – | 11
– | NCCNCCCCNCC1CCN(C(=O)Cc2cccc3ccccc23)CC1 | 330 | -50
– | O=C(Cc1cccc2ccccc12)N1CCC(CNCCCCNCC2CCNCC2)CC1 | 1300 | -120
– | CN1CCCC1CCNCCCCNCC1CCN(C(=O)Cc2cccc3ccccc23)CC1 (stereo not given) | 780 | -55
– | CN1CCC(CNCCCCNCC2CCN(C(=O)Cc3cccc4ccccc34)CC2)CC1 | 570 | -50
– | O=C(Cc1cccc2ccccc12)N1CCC(CNCCCCNCC2CCCNC2)CC1 (stereo not given) | 820 | -58
– | NCCCNCCCCNCC1CCN(C(=O)Cc2cccc3ccccc23)CC1 | 320 | -35
– | O=C(Cc1cccc2ccccc12)N1CCC(CNCCCCNCCCn2ccnc2)CC1 | 260 | -25
– | O=C(Cc1cccc2ccccc12)N1CCC(CNCCCCNCCN2CCCCC2)CC1 | 190 | 5
